Assay results published in ChEMBL document CHEMBL4507310, “Data for DCP probe A-1211212” (2021).
pKi: −log10 of the molar value.

Key:
[1] = molecular target: Serine/threonine-protein kinase 35 (Homo sapiens) (UniProt Q8TDR2); settings: Compound concentration 1000.0 nM
[2] = molecular target: 5-hydroxytryptamine receptor 2A (Homo sapiens) (UniProt P28223); settings: Compound concentration 10.0 uM
[3] = molecular target: Serine/threonine-protein kinase Nek4 (Homo sapiens) (UniProt P51957); settings: Compound concentration 1000.0 nM
[4] = molecular target: Sodium-dependent serotonin transporter (Homo sapiens) (UniProt P31645); settings: Compound concentration 10.0 uM
Chain of Sodium-dependent serotonin transporter (Homo sapiens) (P31645 whole entry, looked up): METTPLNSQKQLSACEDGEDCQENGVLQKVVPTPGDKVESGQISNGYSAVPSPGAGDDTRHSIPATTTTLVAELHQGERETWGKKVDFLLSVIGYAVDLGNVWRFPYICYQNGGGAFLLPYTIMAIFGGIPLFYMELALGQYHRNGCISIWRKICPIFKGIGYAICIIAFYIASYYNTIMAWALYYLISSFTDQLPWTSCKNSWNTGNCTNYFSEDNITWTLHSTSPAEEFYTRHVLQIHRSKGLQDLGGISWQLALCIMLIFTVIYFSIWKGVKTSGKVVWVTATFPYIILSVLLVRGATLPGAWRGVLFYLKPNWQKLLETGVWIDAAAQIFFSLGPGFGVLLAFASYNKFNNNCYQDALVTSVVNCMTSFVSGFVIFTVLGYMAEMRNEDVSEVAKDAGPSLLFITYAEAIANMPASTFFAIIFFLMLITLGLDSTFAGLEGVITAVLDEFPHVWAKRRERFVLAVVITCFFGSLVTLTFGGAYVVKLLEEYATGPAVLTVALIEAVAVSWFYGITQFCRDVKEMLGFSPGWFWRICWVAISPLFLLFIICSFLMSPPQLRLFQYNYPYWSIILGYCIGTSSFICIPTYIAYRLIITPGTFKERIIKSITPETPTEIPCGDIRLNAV

[5] = molecular target: 5'-AMP-activated protein kinase catalytic subunit alpha-2 (Homo sapiens) (UniProt P54646); settings: Compound concentration 1000.0 nM
[6] = molecular target: Adenosine receptor A3 (Homo sapiens) (UniProt P0DMS8); test: A3 (h) Eurofins-Cerep binding assay; set-up: ligand concentration 0.15 nM; settings: filed as agonist, Compound concentration 10.0 uM
[7] = molecular target: Ribosomal protein S6 kinase alpha-2 (Homo sapiens) (UniProt Q15349); settings: Compound concentration 1000.0 nM
[8] = molecular target: Glycogen synthase kinase-3 beta (Homo sapiens) (UniProt P49841); settings: Compound concentration 1000.0 nM
[9] = molecular target: Prostaglandin G/H synthase 2 (Homo sapiens) (UniProt P35354); test: COX2(h) Eurofins-Cerep enzyme and uptake assay; settings: Compound concentration 10.0 uM
[10] = molecular target: Calcium/calmodulin-dependent protein kinase kinase 1 (Homo sapiens) (UniProt Q8N5S9); settings: Compound concentration 1000.0 nM
[11] = system: Tyrosine-protein kinase ABL1 (Homo sapiens), P00519 [F317L]; settings: Compound concentration 1000.0 nM
[12] = molecular target: T1, Sigma intracellular receptor 2 (Homo sapiens, UniProt Q5BJF2); settings: Compound concentration 10.0 uM
T1 sequence (Q5BJF2 whole entry): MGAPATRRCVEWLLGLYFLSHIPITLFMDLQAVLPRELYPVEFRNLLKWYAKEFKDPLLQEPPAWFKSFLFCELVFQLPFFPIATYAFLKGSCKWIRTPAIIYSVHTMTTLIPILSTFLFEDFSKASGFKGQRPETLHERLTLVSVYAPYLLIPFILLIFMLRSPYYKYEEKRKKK

[13] = molecular target: D(1B) dopamine receptor (Homo sapiens) (UniProt P21918); settings: Compound concentration 10.0 uM
[14] = molecular target: Ephrin type-B receptor 4 (Homo sapiens) (UniProt P54760); settings: Compound concentration 1000.0 nM
[15] = molecular target: Tyrosine-protein kinase JAK1 (Homo sapiens) (UniProt P23458); settings: Compound concentration 1000.0 nM
Chain of Tyrosine-protein kinase JAK1 (Homo sapiens) (P23458 whole entry): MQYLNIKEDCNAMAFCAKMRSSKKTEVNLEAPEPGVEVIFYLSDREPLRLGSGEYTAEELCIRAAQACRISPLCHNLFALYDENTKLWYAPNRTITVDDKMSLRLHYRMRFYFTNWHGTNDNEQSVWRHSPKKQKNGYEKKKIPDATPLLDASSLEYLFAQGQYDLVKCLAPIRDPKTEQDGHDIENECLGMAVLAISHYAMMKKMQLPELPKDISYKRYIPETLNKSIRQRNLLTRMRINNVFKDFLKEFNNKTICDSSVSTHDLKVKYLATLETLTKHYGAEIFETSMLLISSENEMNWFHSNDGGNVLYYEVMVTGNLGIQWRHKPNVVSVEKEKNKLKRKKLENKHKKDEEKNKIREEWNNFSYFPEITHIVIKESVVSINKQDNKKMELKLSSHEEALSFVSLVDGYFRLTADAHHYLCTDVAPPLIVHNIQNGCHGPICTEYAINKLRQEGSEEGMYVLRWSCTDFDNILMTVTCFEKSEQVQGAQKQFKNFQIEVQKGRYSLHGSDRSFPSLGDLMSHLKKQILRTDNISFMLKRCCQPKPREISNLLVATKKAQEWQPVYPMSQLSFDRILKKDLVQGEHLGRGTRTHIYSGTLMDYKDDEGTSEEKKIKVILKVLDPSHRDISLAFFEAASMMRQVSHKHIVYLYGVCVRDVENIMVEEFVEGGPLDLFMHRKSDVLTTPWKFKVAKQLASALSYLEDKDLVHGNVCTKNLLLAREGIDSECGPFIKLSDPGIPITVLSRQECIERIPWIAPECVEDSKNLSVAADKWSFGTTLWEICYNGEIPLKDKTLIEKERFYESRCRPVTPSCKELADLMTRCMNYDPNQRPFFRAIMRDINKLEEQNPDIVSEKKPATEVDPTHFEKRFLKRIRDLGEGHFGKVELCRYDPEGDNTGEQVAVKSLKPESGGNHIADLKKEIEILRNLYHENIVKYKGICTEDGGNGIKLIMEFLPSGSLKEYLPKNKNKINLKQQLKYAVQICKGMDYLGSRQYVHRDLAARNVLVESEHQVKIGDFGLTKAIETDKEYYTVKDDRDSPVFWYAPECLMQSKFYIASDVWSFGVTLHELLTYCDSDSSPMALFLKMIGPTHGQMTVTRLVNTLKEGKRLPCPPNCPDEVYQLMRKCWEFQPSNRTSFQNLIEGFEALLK

[16] = molecular target: SNF-related serine/threonine-protein kinase (Homo sapiens) (UniProt Q9NRH2); settings: Compound concentration 1000.0 nM
[17] = molecular target: Cyclin-dependent kinase 5 (Homo sapiens) (UniProt Q00535); settings: Compound concentration 1000.0 nM
Chain of Cyclin-dependent kinase 5 (Homo sapiens) (Q00535 whole entry, looked up): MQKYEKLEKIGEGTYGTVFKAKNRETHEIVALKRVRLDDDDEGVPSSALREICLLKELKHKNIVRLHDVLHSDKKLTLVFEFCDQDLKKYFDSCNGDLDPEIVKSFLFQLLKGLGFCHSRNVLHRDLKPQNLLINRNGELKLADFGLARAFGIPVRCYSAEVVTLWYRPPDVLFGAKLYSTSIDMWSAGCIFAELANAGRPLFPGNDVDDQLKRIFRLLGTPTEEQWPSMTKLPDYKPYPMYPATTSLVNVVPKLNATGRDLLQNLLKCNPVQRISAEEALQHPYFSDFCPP

[18] = molecular target: Mitogen-activated protein kinase 12 (Homo sapiens) (UniProt P53778); settings: Compound concentration 1000.0 nM
[19] = molecular target: Phosphatidylinositol 4-phosphate 3-kinase C2 domain-containing subunit beta (Homo sapiens) (UniProt O00750); settings: Compound concentration 1000.0 nM
[20] = molecular target: Serine/threonine-protein kinase 36 (Homo sapiens) (UniProt Q9NRP7); settings: Compound concentration 1000.0 nM
[21] = molecular target: Serine/threonine-protein kinase D3 (Homo sapiens) (UniProt O94806); settings: Compound concentration 1000.0 nM
[22] = molecular target: Ephrin type-B receptor 3 (Homo sapiens) (UniProt P54753); settings: Compound concentration 1000.0 nM
[23] = molecular target: Serine/threonine-protein kinase Nek9 (Homo sapiens) (UniProt Q8TD19); settings: Compound concentration 1000.0 nM
[24] = molecular target: Dual specificity mitogen-activated protein kinase kinase 5 (Homo sapiens) (UniProt Q13163); settings: Compound concentration 1000.0 nM
Chain of Dual specificity mitogen-activated protein kinase kinase 5 (Homo sapiens) (Q13163 whole entry): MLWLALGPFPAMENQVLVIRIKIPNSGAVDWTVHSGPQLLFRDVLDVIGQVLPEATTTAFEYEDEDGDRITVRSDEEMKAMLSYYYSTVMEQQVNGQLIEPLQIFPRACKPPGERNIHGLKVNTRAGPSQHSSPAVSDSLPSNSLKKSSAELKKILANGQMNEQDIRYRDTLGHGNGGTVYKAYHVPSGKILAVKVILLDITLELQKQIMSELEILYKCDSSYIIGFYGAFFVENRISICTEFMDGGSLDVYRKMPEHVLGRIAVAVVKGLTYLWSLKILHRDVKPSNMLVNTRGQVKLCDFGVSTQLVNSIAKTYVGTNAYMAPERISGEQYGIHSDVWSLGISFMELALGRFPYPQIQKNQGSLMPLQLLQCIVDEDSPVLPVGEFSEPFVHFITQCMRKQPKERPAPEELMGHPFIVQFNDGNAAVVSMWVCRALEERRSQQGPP

[25] = molecular target: Mitogen-activated protein kinase kinase kinase 2 (Homo sapiens) (UniProt Q9Y2U5); settings: Compound concentration 1000.0 nM
Chain of Mitogen-activated protein kinase kinase kinase 2 (Homo sapiens) (Q9Y2U5 whole entry): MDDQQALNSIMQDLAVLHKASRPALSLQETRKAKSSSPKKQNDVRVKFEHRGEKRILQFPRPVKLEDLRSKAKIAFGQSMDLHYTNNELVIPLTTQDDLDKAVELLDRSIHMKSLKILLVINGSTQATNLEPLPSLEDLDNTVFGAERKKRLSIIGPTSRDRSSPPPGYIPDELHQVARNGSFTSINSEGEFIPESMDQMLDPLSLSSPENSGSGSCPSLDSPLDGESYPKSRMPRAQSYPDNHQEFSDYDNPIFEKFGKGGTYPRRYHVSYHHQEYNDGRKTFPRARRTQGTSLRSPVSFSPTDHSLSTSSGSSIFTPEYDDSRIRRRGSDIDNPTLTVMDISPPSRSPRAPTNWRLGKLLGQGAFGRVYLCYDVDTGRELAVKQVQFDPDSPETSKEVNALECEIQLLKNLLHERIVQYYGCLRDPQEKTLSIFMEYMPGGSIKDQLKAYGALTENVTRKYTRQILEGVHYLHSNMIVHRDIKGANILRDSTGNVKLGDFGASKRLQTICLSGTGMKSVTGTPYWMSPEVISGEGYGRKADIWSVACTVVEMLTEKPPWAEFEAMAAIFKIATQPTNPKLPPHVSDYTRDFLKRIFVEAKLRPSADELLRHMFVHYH

[26] = molecular target: Tyrosine-protein kinase BTK (Homo sapiens) (UniProt Q06187); settings: Compound concentration 1000.0 nM
[27] = molecular target: Phosphatidylinositol 4-phosphate 5-kinase type-1 alpha (Homo sapiens) (UniProt Q99755); settings: Compound concentration 1000.0 nM
[28] = molecular target: Serine/threonine-protein kinase ULK3 (Homo sapiens) (UniProt Q6PHR2); settings: Compound concentration 1000.0 nM
[29] = molecular target: Serine/threonine-protein kinase Nek3 (Homo sapiens) (UniProt P51956); settings: Compound concentration 1000.0 nM
Chain of Serine/threonine-protein kinase Nek3 (Homo sapiens) (P51956 whole entry): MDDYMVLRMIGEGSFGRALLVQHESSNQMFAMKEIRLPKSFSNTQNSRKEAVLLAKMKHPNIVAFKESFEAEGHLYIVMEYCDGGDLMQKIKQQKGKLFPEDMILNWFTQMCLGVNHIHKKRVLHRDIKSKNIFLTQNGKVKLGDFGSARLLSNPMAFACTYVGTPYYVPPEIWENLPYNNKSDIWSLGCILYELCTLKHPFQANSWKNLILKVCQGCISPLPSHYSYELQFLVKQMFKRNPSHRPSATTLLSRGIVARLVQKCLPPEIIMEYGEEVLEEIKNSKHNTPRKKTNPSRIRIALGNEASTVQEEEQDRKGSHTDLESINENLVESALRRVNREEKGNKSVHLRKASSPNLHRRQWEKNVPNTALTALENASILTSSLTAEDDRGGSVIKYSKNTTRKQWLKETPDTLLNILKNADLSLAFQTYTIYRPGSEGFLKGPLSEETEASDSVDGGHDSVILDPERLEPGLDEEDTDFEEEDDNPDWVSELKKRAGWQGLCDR

[30] = molecular target: Myotonin-protein kinase (Homo sapiens) (UniProt Q09013); settings: Compound concentration 1000.0 nM
[31] = system: Receptor-type tyrosine-protein kinase FLT3 (Homo sapiens), P36888 [UNDEFINED MUTATION]; settings: Compound concentration 1000.0 nM
[32] = system: Receptor-type tyrosine-protein kinase FLT3 (Homo sapiens), P36888 [R834Q]; settings: Compound concentration 1000.0 nM
[33] = molecular target: Ribosomal protein S6 kinase alpha-4 (Homo sapiens) (UniProt O75676); settings: Compound concentration 1000.0 nM
[34] = molecular target: Cyclin-dependent kinase-like 3 (Homo sapiens) (UniProt Q8IVW4); settings: Compound concentration 1000.0 nM
Chain of Cyclin-dependent kinase-like 3 (Homo sapiens) (Q8IVW4 whole entry, looked up): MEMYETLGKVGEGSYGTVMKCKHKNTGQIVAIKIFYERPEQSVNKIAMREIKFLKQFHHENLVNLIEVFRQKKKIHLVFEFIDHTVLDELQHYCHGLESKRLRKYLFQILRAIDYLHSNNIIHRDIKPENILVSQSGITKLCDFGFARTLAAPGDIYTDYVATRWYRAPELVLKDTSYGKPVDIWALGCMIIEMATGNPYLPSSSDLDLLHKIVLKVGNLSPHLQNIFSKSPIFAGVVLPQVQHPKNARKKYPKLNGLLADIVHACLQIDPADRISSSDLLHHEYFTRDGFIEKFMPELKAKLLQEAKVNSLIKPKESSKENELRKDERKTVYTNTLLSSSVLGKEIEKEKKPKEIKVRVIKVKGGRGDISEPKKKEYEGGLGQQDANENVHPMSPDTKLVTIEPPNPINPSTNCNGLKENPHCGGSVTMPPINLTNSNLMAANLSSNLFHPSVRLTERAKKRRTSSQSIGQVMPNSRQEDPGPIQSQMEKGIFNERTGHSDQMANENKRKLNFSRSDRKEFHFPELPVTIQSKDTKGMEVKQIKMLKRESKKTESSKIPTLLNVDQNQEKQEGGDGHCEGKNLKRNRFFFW

[35] = molecular target: Homeodomain-interacting protein kinase 3 (Homo sapiens) (UniProt Q9H422); settings: Compound concentration 1000.0 nM
[36] = molecular target: Serine/threonine-protein kinase Nek6 (Homo sapiens) (UniProt Q9HC98); settings: Compound concentration 1000.0 nM
[37] = molecular target: Adenosine receptor A1 (Homo sapiens) (UniProt P30542); test: A1 (h) Eurofins-Cerep binding assay; set-up: ligand concentration 1 nM; settings: filed as antagonist, Compound concentration 10.0 uM
[38] = molecular target: Calcium/calmodulin-dependent protein kinase type II subunit beta (Homo sapiens) (UniProt Q13554); settings: Compound concentration 1000.0 nM
[39] = molecular target: MAP kinase-activated protein kinase 5 (Homo sapiens) (UniProt Q8IW41); settings: Compound concentration 1000.0 nM
Chain of MAP kinase-activated protein kinase 5 (Homo sapiens) (Q8IW41 whole entry): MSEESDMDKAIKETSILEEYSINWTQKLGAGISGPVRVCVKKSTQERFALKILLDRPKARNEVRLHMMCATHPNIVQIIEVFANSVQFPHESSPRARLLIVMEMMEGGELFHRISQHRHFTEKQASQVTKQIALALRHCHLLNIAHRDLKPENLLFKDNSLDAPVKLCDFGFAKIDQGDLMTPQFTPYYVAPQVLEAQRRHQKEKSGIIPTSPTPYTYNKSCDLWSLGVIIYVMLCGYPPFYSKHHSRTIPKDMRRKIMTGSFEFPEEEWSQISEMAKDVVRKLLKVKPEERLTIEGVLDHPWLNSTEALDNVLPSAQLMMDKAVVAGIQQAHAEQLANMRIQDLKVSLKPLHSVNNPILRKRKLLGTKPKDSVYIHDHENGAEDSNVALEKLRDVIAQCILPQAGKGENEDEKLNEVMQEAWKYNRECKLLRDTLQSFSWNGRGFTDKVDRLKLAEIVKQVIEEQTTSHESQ

[40] = molecular target: Macrophage colony-stimulating factor 1 receptor (Homo sapiens) (UniProt P07333); settings: Compound concentration 1000.0 nM
[41] = molecular target: T1, Sigma intracellular receptor 2; test: GPCRScan assay: inhibition of Sigma 2; set-up: radioligand conc. used [nm] 5.0, parental cells HEKT

With `O=C(NS(=O)(=O)c1ccc(NCC2CCOCC2)c([N+](=O)[O-])c1)c1ccc(N2CCN(Cc3ccc(C(F)(F)F)cc3-c3ccc(Cl)cc3)CC2)cc1Oc1cnc2[nH]ccc2c1` [A-1210227] the residual activity [1] was 95%, the inhibition [2] was 12.5% and the residual activity [3] was 100%. It also gave an inhibition [4] of -8.19%, a residual activity [5] of 100% and a % Inhibition of Control Specific Binding (Mean n=2) [6] of 6.5%. The residual activity [7] was 100%, the residual activity [8] was 100% and the % Inhibition of Control Values (Mean n=2) [9] was 78.1%. For the same molecule, the residual activity [10] was 92%, the residual activity [11] was 91% and the inhibition [12] was 54.3%. The inhibition [13] was 9.7%, the residual activity [14] was 100% and the residual activity [15] was 100%. For the same molecule, the residual activity [16] was 100%, the residual activity [17] was 81% and the residual activity [18] was 50%. It also gave a residual activity [19] of 83%, a residual activity [20] of 88% and a residual activity [21] of 100%. For the same molecule, the residual activity [22] was 100%, the residual activity [23] was 100% and the residual activity [24] was 75%. The residual activity [25] was 100%, the residual activity [26] was 100% and the residual activity [27] was 93%. The residual activity [28] was 85%, the residual activity [29] was 85% and the residual activity [30] was 100%. For the same molecule, the residual activity [31] was 100%, the residual activity [32] was 80% and the residual activity [33] was 100%. The residual activity [34] was 95%, the residual activity [35] was 100% and the residual activity [36] was 89%. For the same molecule, the % Inhibition of Control Specific Binding (Mean n=2) [37] was 13.6%, the residual activity [38] was 96% and the residual activity [39] was 81%. For the same molecule, the residual activity [40] was 85% and the pKi [41] was 5.08.

`CO[C@H]1CC[C@H](CNc2ccc(S(=O)(=O)NC(=O)c3ccc(N4CCN(CC5=C(c6ccc(Cl)cc6)CC(C)(C)CC5)CC4)cc3Oc3cnc4[nH]ccc4c3)cc2[N+](=O)[O-])CC1` [A-1211212] was tested, and the residual activity [1] was 93%, the inhibition [2] was 12.7% and the residual activity [3] was 100%. The inhibition [4] was 25.1%, the residual activity [5] was 93% and the % Inhibition of Control Specific Binding (Mean n=2) [6] was 13.3%. It also gave a residual activity [7] of 71%, a residual activity [8] of 100% and a % Inhibition of Control Values (Mean n=2) [9] of 14.2%. For the same molecule, the residual activity [10] was 83%, the residual activity [11] was 100% and the inhibition [12] was 60.7%. It also gave an inhibition [13] of 34.1%, a residual activity [14] of 100% and a residual activity [15] of 100%. The residual activity [16] was 100%, the residual activity [17] was 82% and the residual activity [18] was 47%. For the same molecule, the residual activity [19] was 92%, the residual activity [20] was 71% and the residual activity [21] was 100%. For the same molecule, the residual activity [22] was 94%, the residual activity [23] was 95% and the residual activity [24] was 66%. It also gave a residual activity [25] of 68%, a residual activity [26] of 100% and a residual activity [27] of 86%. For the same molecule, the residual activity [28] was 80%, the residual activity [29] was 66% and the residual activity [30] was 91%. The residual activity [31] was 86%, the residual activity [32] was 100% and the residual activity [33] was 95%. For the same molecule, the residual activity [34] was 83%, the residual activity [35] was 100% and the residual activity [36] was 89%. It also gave a % Inhibition of Control Specific Binding (Mean n=2) [37] of 9.1%, a residual activity [38] of 80% and a residual activity [39] of 82%. For the same molecule, the residual activity [40] was 88% and the pKi [41] was 5.83.
